Measurements reported in patent US7135499B2, “Active substance combinations having insecticidal and acaricidal properties” (priority 2002, dated 2006).
Several values for one entry are separate records, joined by “and”; a condition that tells them apart may be missing. Equal values may be shown once. Read-outs that look alike come from different tables or passages of the source.

Columns and labels:
[1] = test system: cotton aphid (Aphis gossypii); test: Aphis gossypii test; format: in vivo; details: after 6 d
[2] = test system: green peach aphid (Myzus persicea); test: Myzus test; format: in vivo
[3] = test system: caterpillars of the diamondback moth (Plutella xylostella, resistant strain); test: Plutella test, resistant strain; format: in vivo
[4] = test system: caterpillars of the diamondback moth (Plutella xylostella, sensitive strain); test: Plutella test, sensitive strain; format: in vivo
[5] = test system: Heliothis armigera caterpillars; test: Heliothis armigera test; format: in vivo; details: for pest or weed control at 0.024 ppm: read-out: Kill rate in % found, 0.024 ppm; for pest or weed control at 0.12 ppm: read-out: Kill rate in % found, 0.12 ppm; for pest or weed control at 3 ppm: read-out: Kill rate in % found, 3 ppm
[6] = test system: caterpillars of the armyworm (Spodoptera frugiperda); test: Spodoptera frugiperda test; format: in vivo; details: for pest or weed control at 0.16 ppm: read-out: Kill rate in % found, 0.16 ppm; for pest or weed control at 0.6 ppm: read-out: Kill rate in % found, 0.6 ppm
[7] = test system: caterpillars of the armyworm (Spodoptera exigua); test: Spodoptera exigua test; format: in vivo
[8] = test system: larvae of the mustard beetle (Phaedon cochleariae); test: Phaedon larvae test
[9] = Helicoverpa armigera, 72 h, after 3 d
[10] = Helicoverpa armigera, 144 h, after 6 d
[11] = Spodoptera frugiperda, 72 h, after 3 d
[12] = Spodoptera frugiperda, 144 h, after 6 d

## Cc1cc(C(F)(C(F)(F)F)C(F)(F)F)ccc1NC(=O)c1cccc(I)c1C(=O)NC(C)(C)CS(C)(=O)=O [(I), N^2-[1,1-dimethyl-2-(methylsulphonyl)ethyl]-3-iodo-N^1-{2-methyl-4-[1,2,2,2-tetrafluoro-1-(trifluoromethyl)ethyl]phenyl}phthalamide]
[1]; 500 ppm
  Kill rate in % found: 0%
[2]; 100 ppm, after 1 d
  Kill rate in % found: 0%
[2]; 500 ppm, after 6 d
  Kill rate in % found: 0%
[3]; 0.0048 ppm, after 6 d
  Kill rate in % found: 10% and 0%
[3]; 0.02 ppm, after 6 d
  Kill rate in % found: 30%
[3]; 0.024 ppm, after 3 d
  Kill rate in % found: 70%
[4]; 0.0048 ppm, after 3 d
  Kill rate in % found: 0%
[4]; 0.0048 ppm, after 6 d
  Kill rate in % found: 25%
[4]; 0.0064 ppm, after 6 d
  Kill rate in % found: 60%
[4]; 0.024 ppm, after 3 d
  Kill rate in % found: 55%
[4]; 0.032 ppm, after 3 d
  Kill rate in % found: 65%
[5]; [9]
  pest or weed control at 0.024 ppm: 80%
  pest or weed control at 0.12 ppm: 80%
[5]; Helicoverpa armigera, 72 h, read-out: Kill rate in % found, 0.1 ppm, after 3 d
  pest or weed control at 0.1 ppm: 80%
[5]; Helicoverpa armigera, 96 h, read-out: Kill rate in % found, 0.032 ppm, after 4 d
  pest or weed control at 0.032 ppm: 90%
[5]; [10]
  pest or weed control at 0.024 ppm: 70%
[6]; [11]
  pest or weed control at 0.16 ppm: 70%
[6]; Spodoptera frugiperda, 96 h, after 4 d
  pest or weed control at 0.16 ppm: 70%
[6]; Spodoptera frugiperda, 144 h, read-out: Kill rate in % found, 0.02 ppm, after 6 d
  pest or weed control at 0.02 ppm: 5%
[6]; [12]
  pest or weed control at 0.16 ppm: 95%
[7]; 0.024 ppm, after 6 d
  Kill rate in % found: 40%
[7]; 0.032 ppm, after 4 d
  Kill rate in % found: 10%
[7]; 0.12 ppm, after 6 d
  Kill rate in % found: 85%
[8]; 0.12 ppm, after 3 d
  Kill rate in % found: 0%
[8]; 0.12 ppm, after 6 d
  Kill rate in % found: 0%
[8]; 0.6 ppm, after 3 d
  Kill rate in % found: 0%
[8]; 3 ppm, after 3 d
  Kill rate in % found: 60%
[8]; 3 ppm, after 6 d
  Kill rate in % found: 70%

## CN/C(=N\[N+](=O)[O-])NCc1cnc(Cl)s1 [clothianidin]
[2]; 0.6 ppm, after 6 d
  Kill rate in % found: 60%
[5]; [9]
  pest or weed control at 3 ppm: 10%

## CC1(C)[C@H](C(=O)O[C@H](C#N)c2cccc(Oc3ccccc3)c2)[C@@H]1C=C(Br)Br [deltamethrin]
[4]; 0.00128 ppm, after 6 d
  Kill rate in % found: 40%
[5]; Helicoverpa armigera, 96 h, read-out: Kill rate in % found, 0.0064 ppm, after 4 d
  pest or weed control at 0.0064 ppm: 10%
[6]; Spodoptera frugiperda, 96 h, read-out: Kill rate in % found, 0.0064 ppm, after 4 d
  pest or weed control at 0.0064 ppm: 0%
[7]; 0.00128 ppm, after 4 d
  Kill rate in % found: 0%

## CN/C(=N\[N+](=O)[O-])NCC1CCOC1 (centres unmarked) [dinotefuran]
[2]; 3 ppm, after 1 d
  Kill rate in % found: 15%
[6]; Spodoptera frugiperda, 72 h, read-out: Kill rate in % found, 3 ppm, after 3 d
  pest or weed control at 3 ppm: 40%

## CC[S+]([O-])c1c(C#N)nn(-c2c(Cl)cc(C(F)(F)F)cc2Cl)c1N (centres unmarked) [ethiprole]
[6]; Spodoptera frugiperda, 144 h, read-out: Kill rate in % found, 20 ppm, after 6 d
  pest or weed control at 20 ppm: 10%

## N#Cc1nn(-c2c(Cl)cc(C(F)(F)F)cc2Cl)c(N)c1[S+]([O-])C(F)(F)F (centres unmarked) [fipronil]
[4]; 0.12 ppm, after 3 d
  Kill rate in % found: 65%
[5]; [10]
  pest or weed control at 0.12 ppm: 10%
[6]; [11]
  pest or weed control at 0.6 ppm: 20%

## O=C(NC(=O)c1c(F)cccc1F)Nc1ccc(Oc2ccc(C(F)(F)F)cc2Cl)cc1F [flufenoxuron]
[3]; 0.12 ppm, after 6 d
  Kill rate in % found: 40%
[4]; 0.12 ppm, after 3 d
  Kill rate in % found: 0%
[5]; [10]
  pest or weed control at 0.12 ppm: 15%
[7]; 0.6 ppm, after 3 d
  Kill rate in % found: 0%
[8]; 3 ppm, after 3 d
  Kill rate in % found: 0%

## COC(=O)N(C(=O)N1COC2(C(=O)OC)Cc3cc(Cl)ccc3C2=N1)c1ccc(OC(F)(F)F)cc1 (centres unmarked) [indoxacarb]
[3]; 0.12 ppm, after 6 d
  Kill rate in % found: 50%
[4]; 0.024 ppm, after 3 d
  Kill rate in % found: 0%
[5]; [10]
  pest or weed control at 0.024 ppm: 0%
[6]; [11]
  pest or weed control at 0.6 ppm: 60%
[7]; 0.6 ppm, after 3 d
  Kill rate in % found: 20%
[8]; 0.6 ppm, after 3 d
  Kill rate in % found: 35%

## COc1cccc(C(=O)NN(C(=O)c2cc(C)cc(C)c2)C(C)(C)C)c1C [methoxyfenozide]
[3]; 0.6 ppm, after 6 d
  Kill rate in % found: 0%
[5]; [9]
  pest or weed control at 3 ppm: 50%
[6]; [12]
  pest or weed control at 0.6 ppm: 5%

## N#C/N=C1\SCCN1Cc1ccc(Cl)nc1 [thiacloprid]
[1]; 3 ppm
  Kill rate in % found: 50%
[2]; 3 ppm, after 6 d
  Kill rate in % found: 60%
[3]; 3 ppm, after 3 d
  Kill rate in % found: 5%
[8]; 15 ppm, after 6 d
  Kill rate in % found: 85%

## CN1COCN(Cc2cnc(Cl)s2)/C1=N/[N+](=O)[O-] [thiamethoxam]
[2]; 0.6 ppm, after 1 d
  Kill rate in % found: 85%
[3]; 3 ppm, after 6 d
  Kill rate in % found: 0%
[8]; 15 ppm, after 3 d
  Kill rate in % found: 85%

## O=C(NC(=O)c1ccccc1Cl)Nc1ccc(OC(F)(F)F)cc1 [triflumuron]
[3]; 3 ppm, after 6 d
  Kill rate in % found: 0%
[4]; 0.6 ppm, after 3 d
  Kill rate in % found: 0%
[5]; Helicoverpa armigera, 72 h, read-out: Kill rate in % found, 15 ppm, after 3 d
  pest or weed control at 15 ppm: 0%
[6]; Spodoptera frugiperda, 72 h, read-out: Kill rate in % found, 0.12 ppm, after 3 d
  pest or weed control at 0.12 ppm: 5%
[7]; 15 ppm, after 3 d
  Kill rate in % found: 15%
[8]; 0.6 ppm, after 6 d
  Kill rate in % found: 0%

## abamectin
[4]; 0.00096 ppm, after 3 d
  Kill rate in % found: 35%
[5]; 0.0048 ppm, after 6 d
  Kill rate in % found: 30%
[6]; 3 ppm, after 3 d
  Kill rate in % found: 25%
[7]; 3 ppm, after 6 d
  Kill rate in % found: 70%
[8]; 0.12 ppm, after 3 d
  Kill rate in % found: 25%

## emamectin-benzoate
[3]; 0.00024 ppm, after 6 d
  Kill rate in % found: 15%
[4]; 0.00024 ppm, after 6 d
  Kill rate in % found: 10%
[5]; 0.00024 ppm, after 6 d
  Kill rate in % found: 0%
[6]; 0.006 ppm, after 3 d
  Kill rate in % found: 70%
[7]; 0.0012 ppm, after 6 d
  Kill rate in % found: 20%
[8]; 0.006 ppm, after 6 d
  Kill rate in % found: 10%

## spinosad
[4]; 0.0064 ppm, after 3 d
  Kill rate in % found: 5%
[6]; 0.032 ppm, after 3 d
  Kill rate in % found: 35%
